Experiments:
Lung [1] = test: Biodistribution in lung of BALB/cAnNCrlCrlj mouse at 0.5 umol/kg administered as [14C]labeled compound intranasally as single dose measured 0.25 hrs post dose by liquid scintillation counting; format: ADME, organism-based; settings: in vivo, inhaled_or_intranasal
[2] = Biodistribution in trachea of BALB/cAnNCrlCrlj mouse at 0.5 umol/kg administered as [14C]labeled compound intranasally as single dose measured 0.25 hrs post dose by liquid scintillation counting; format: ADME, organism-based; settings: in vivo, inhaled_or_intranasal
Lung [3] = test: Cmax in BALB/cAnNCrlCrlj mouse lung assessed as compound concentration per gram of tissue at 0.5 umol/kg administered as [14C]labeled compound intranasally as single dose; format: ADME, organism-based; design: dose 0.5 umol/kg, route nasal; settings: in vivo, inhaled_or_intranasal
Lung [4] = test: Drug level in BALB/cAnNCrlCrlj mouse lung at 0.5 umol/kg administered as [14C]labeled compound intranasally as single dose measured 120 hrs post dose; format: ADME, tissue-based; settings: in vivo, inhaled_or_intranasal
Influenza A virus = test: Antiviral activity against Influenza A virus (A/Puerto Rico/8/1934(H1N1)); format: functional, organism-based
Lung [5] = test: Half life in BALB/cAnNCrlCrlj mouse lung at 0.5 umol/kg administered as [14C]labeled compound intranasally as single dose; format: ADME, organism-based; settings: in vivo, inhaled_or_intranasal
Lung [6] = test: Tmax in BALB/cAnNCrlCrlj mouse lung at 0.5 umol/kg administered as [14C]labeled compound intranasally as single dose; format: ADME, organism-based; settings: in vivo, inhaled_or_intranasal
[7] = Biodistribution in trachea of BALB/cAnNCrlCrlj mouse at 0.5 umol/kg administered as [14C]labeled compound intranasally as single dose measured 24 hrs post dose by liquid scintillation counting; format: ADME, organism-based; settings: in vivo, inhaled_or_intranasal
[8] = Biodistribution in respiratory tract of BALB/cAnNCrlCrlj mouse at 0.5 umol/kg administered as [14C]labeled compound intranasally as single dose measured 6 hrs post dose by whole body autoradiography; format: ADME, organism-based; settings: in vivo, inhaled_or_intranasal
[9] = Biodistribution in respiratory tract of BALB/cAnNCrlCrlj mouse at 0.5 umol/kg administered as [14C]labeled compound intranasally as single dose measured 72 hrs post dose by whole body autoradiography; format: ADME, organism-based; settings: in vivo, inhaled_or_intranasal
Lung [10] = test: Biodistribution in lung of BALB/cAnNCrlCrlj mouse at 0.5 umol/kg administered as [14C]labeled compound intranasally as single dose measured 24 hrs post dose by liquid scintillation counting; format: ADME, organism-based; settings: in vivo, inhaled_or_intranasal
[11] = Prodrug conversion in BALB/cAnNCrlCrlj mouse lung S9 fraction assessed as compound conversion to R-125489 at 10 uM in presence of esterase inhibitor PCMB administered 10 mins before compound addition relative to untreated control; format: ADME; settings: s9, 10 min
[12] = Prodrug conversion in BALB/cAnNCrlCrlj mouse lung S9 fraction assessed as compound conversion to R-125489 at 10 uM in presence of esterase inhibitor eserine administered 10 mins before compound addition relative to untreated control; format: ADME; settings: s9, 10 min
[13] = Prodrug conversion in BALB/cAnNCrlCrlj mouse trachea assessed as compound conversion to R-125489 at 10 uM relative to untreated control; format: ADME, tissue-based
[14] = Prodrug conversion in BALB/cAnNCrlCrlj mouse lung S9 fraction assessed as compound conversion to R-125489 at 10 uM relative to untreated control; format: ADME; settings: s9, 10 µM
[15] = Prodrug conversion in BALB/cAnNCrlCrlj mouse lung S9 fraction assessed as compound conversion to R-125489 at 10 uM in presence of esterase inhibitor DTNB administered 10 mins before compound addition relative to untreated control; format: ADME; settings: s9, 10 min
[16] = Prodrug conversion in BALB/cAnNCrlCrlj mouse lung S9 fraction assessed as compound conversion to R-125489 at 10 uM in presence of esterase inhibitor EDTA administered 10 mins before compound addition relative to untreated control; format: ADME; settings: s9, 10 min
[17] = Prodrug conversion in BALB/cAnNCrlCrlj mouse trachea assessed as compound conversion to R-125489 at 10 uM in presence of esterase inhibitor DFP administered 10 mins before compound addition relative to untreated control; format: ADME, tissue-based
[18] = Prodrug conversion in BALB/cAnNCrlCrlj mouse lung S9 fraction assessed as compound conversion to R-125489 at 10 uM in presence of esterase inhibitor DFP administered 10 mins before compound addition relative to untreated control; format: ADME; settings: s9, 10 min
[19] = Prodrug conversion in BALB/cAnNCrlCrlj mouse lung S9 fraction assessed as compound conversion to R-125489 at 10 uM in presence of esterase inhibitor BNPP administered 10 mins before compound addition relative to untreated control; format: ADME; settings: s9, 10 min

Which Drug uptake (Lung [1]) does the source give for CO[C@@H]([C@@H]1OC(C(=O)O)=C[C@H](N[14C](=N)N)[C@H]1NC(C)=O)[C@H](O)CO here?
The Drug uptake was 30 nmolequiv/g.

And the Drug uptake [2]?
Its Drug uptake is 4 nmolequiv/g.

Which Cmax (Lung [3]) does the source give for CO[C@@H]([C@@H]1OC(C(=O)O)=C[C@H](NC(=N)N)[C@H]1NC(C)=O)[C@H](O)CO [LANINAMIVIR] here?
The Cmax was 6.41 nmol/g.

And the Drug uptake (Lung [4])?
The Drug uptake was 0.915 nmol/g.

And the IC50 (Influenza A virus)?
The IC50 was 5.97 nM.

And the t1/2 (Lung [5])?
Its t1/2 is 41.4 h.

What about the Tmax (Lung [6]) of the same compound?
The Tmax was 3 h.

What does the source list for CCCCCCCC(=O)OC[C@@H](O)[C@@H](OC)[C@@H]1OC(C(=O)O)=C[C@H](N[14C](=N)N)[C@H]1NC(C)=O?
Drug uptake (Lung [1]): 30 nmolequiv/g; Drug uptake [7]: 0.99 nmolequiv/g; Drug uptake [8]: Active; Drug uptake [9]: Active; Drug uptake [2]: 4 nmolequiv/g; Drug uptake (Lung [10]): 5.57 nmolequiv/g

Which Drug uptake (Lung [1]) does the source give for CC(=O)N[C@H]1[C@H]([C@H](O)[C@H](O)CO)OC(C(=O)O)=C[C@@H]1N[14C](=N)N [[14C]-ZANAMIVIR] here?
Its Drug uptake is 30 nmolequiv/g.

What about the Drug uptake [2] of the same compound?
The Drug uptake was 4 nmolequiv/g.

Which Activity [11] does the source give for CCCCCCCC(=O)OC[C@@H](O)[C@@H](OC)[C@@H]1OC(C(=O)O)=C[C@H](NC(=N)N)[C@H]1NC(C)=O [LANINAMIVIR OCTANOATE] here?
The Activity was 106.5%.

And the Activity [12]?
Its Activity is 31.9%.

What about the Activity [13] of the same compound?
Its Activity is 100%.

And the Activity [14]?
The Activity was 100%.

And the Activity [15]?
The Activity was 42%.

And the Activity [16]?
Its Activity is 130.7%.

And the Activity [17]?
The Activity was 44.1%.

And the Activity [18]?
Its Activity is 13.6%.

What about the t1/2 (Lung [5]) of the same compound?
Its t1/2 is 0.833 h.

What about the Activity [19] of the same compound?
Its Activity is 21%.

Source: ChEMBL document CHEMBL1671670, “CS-8958, a prodrug of the novel neuraminidase inhibitor R-125489, demonstrates a favorable long-retention profile in the mouse respiratory tract” (Antimicrob Agents Chemother, 2009)
